This note sets out measurements from patent US9242996B2 (Novartis AG, priority 2013, dated 2016).

The target in test [1] is T1, activated ERK2 (Homo sapiens (Human), UniProt P28482). The experiment in a line: Activated ERK2 kinase assay, ERK2 New conditions (AlphaScreen, ERKtide phosphorylation). Type of test: biochemical. Conditions: 0.25 nM ERK2, 200 nM ERKtide peptide, 35 μM ATP, 30 min preincubation. The gist of the method: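 0.25 nM ERK2 preincubated 30 min with compound, then reacted 2–3 h at ambient temperature with 200 nM ERKtide and 35 µM ATP (final) in HEPES pH 7.5 buffer. EDTA stop; phospho-peptide detected by AlphaScreen after overnight incubation; IC50 from four-parameter fit.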
T1 sequence (P28482 whole entry): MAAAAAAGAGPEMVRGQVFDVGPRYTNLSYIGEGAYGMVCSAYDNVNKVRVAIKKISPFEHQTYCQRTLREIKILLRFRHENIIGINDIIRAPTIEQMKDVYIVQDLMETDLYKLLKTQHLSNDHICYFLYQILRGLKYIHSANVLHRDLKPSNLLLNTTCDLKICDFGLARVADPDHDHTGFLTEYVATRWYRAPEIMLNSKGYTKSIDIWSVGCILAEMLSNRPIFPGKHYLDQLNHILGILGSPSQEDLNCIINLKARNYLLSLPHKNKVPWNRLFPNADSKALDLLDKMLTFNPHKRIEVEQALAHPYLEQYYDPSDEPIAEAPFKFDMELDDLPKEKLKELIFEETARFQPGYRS

Test [2] addresses T1, activated ERK2. In words: Activated ERK2 (20 pM) Kinase Assay (AlphaScreen, ERKtide phosphorylation). In kind it is biochemical. As to conditions: 0.02 nM ERK2, 400 nM ERKtide peptide, 35 μM ATP, 30 min preincubation. The gist of the method: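 Activated human ERK2 (0.02 nM) preincubated 30 min with compounds, then 400 nM ERKtide and 35 μM ATP added for 4 h at ambient temperature in HEPES pH 7.5, MgCl2, DTT, Tween-20, BSA. EDTA stop; phospho-peptide read by AlphaScreen after overnight dark incubation; four-parameter IC50.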
(Bead proximity is the source of the signal in Alpha formats.)

In the case of `C[C@@H](NC(=O)c1ccc(-c2cc(C3CCNC(=O)C3)cnc2N)cc1F)c1cccc(Cl)c1` (mixture of isomers) [Example 120, 4-(2-amino-5-(2-oxopiperidin-4-yl)pyridin-3-yl)-N-((R)-1-(3-chlorophenyl)ethyl)-2-fluorobenzamide], the IC50 (usually the point on the concentration scale where inhibition reaches its midpoint) on activated ERK2 [1] was 1.35 nM; on activated ERK2 [2], 0.536 nM.

Turning to `Nc1ncc(C2CCNC(=O)C2)cc1-c1ccc(C(=O)N[C@H](CO)c2cccc(Cl)c2)c(F)c1` (mixture of isomers) [Example 121, 4-(2-amino-5-(2-oxopiperidin-4-yl)pyridin-3-yl)-N-((S)-1-(3-chlorophenyl)-2-hydroxyethyl)-2-fluorobenzamide], the IC50 on activated ERK2 [1] came to 0.34 nM; at activated ERK2 [2], 0.217 nM.

Regarding `CS(=O)(=O)[C@H]1CC[C@@H](c2cnc(N)c(-c3ccc(C(=O)NCc4ccccc4)c(F)c3)n2)CC1` [Example 16, 4-(3-amino-6-((1s,4s)-4-(methylsulfonyl)cyclohexyl)pyrazin-2-yl)-N-benzyl-2-fluorobenzamide], the IC50 against activated ERK2 [1] is 206 nM; at activated ERK2 [2] it was 197 nM.

For the compound `CN1CC[C@@H](c2cnc(N)c(-c3ccc(C(=O)N[C@H](CO)c4cccc(Cl)c4)c(F)c3)c2)CC1=O` [Example 27, 4-(2-amino-5-((R)-1-methyl-2-oxopiperidin-4-yl)pyridin-3-yl)-N—((S)-1-(3-chlorophenyl)-2-hydroxyethyl)-2-fluorobenzamide], the half-maximal inhibitory concentration (IC50) against activated ERK2 [1] turned out to be 4.1 nM; on activated ERK2 [2], 1.87 nM.

For the compound `CN1CC[C@H](c2cnc(N)c(-c3ccc(C(=O)N[C@H](CO)c4cccc(Cl)c4)c(F)c3)c2)CC1=O` [Example 28, 4-(2-amino-5-((S)-1-methyl-2-oxopiperidin-4-yl)pyridin-3-yl)-N—((S)-1-(3-chlorophenyl)-2-hydroxyethyl)-2-fluorobenzamide], the IC50 was found to be 2.55 nM against activated ERK2 [1] and 1.2 nM against activated ERK2 [2].

Regarding `C[C@@H](NC(=O)c1ccc(-c2cc([C@@H]3CCN(C)C(=O)C3)cnc2N)cc1F)c1ccccc1` [Example 30, 4-(2-amino-5-((R)-1-methyl-2-oxopiperidin-4-yl)pyridin-3-yl)-2-fluoro-N—((R)-1-phenylethyl)benzamide], the concentration for half-maximal inhibition (IC50) worked out at 69.5 nM against activated ERK2 [1] and 22.5 nM against activated ERK2 [2].

With `C[C@@H](NC(=O)c1ccc(-c2cc([C@H]3CCN(C)C(=O)C3)cnc2N)cc1F)c1ccccc1` [Example 31, 4-(2-amino-5-((S)-1-methyl-2-oxopiperidin-4-yl)pyridin-3-yl)-2-fluoro-N—((R)-1-phenylethyl)benzamide], the 50% inhibitory concentration (IC50) amounted to 74 nM against activated ERK2 [1] and 32 nM against activated ERK2 [2].

With `C[C@@H](NC(=O)c1ccc(-c2cc([C@H]3CCC(=O)N(C)C3)cnc2N)cc1F)c1cccc(Cl)c1` [Example 39, 4-(2-amino-5-((R)-1-methyl-6-oxopiperidin-3-yl)pyridin-3-yl)-N—((R)-1-(3-chlorophenyl)ethyl)-2-fluorobenzamide], the figures for the half-inhibitory concentration (IC50) at activated ERK2 [1] and against activated ERK2 [2] were 2.48 nM and 1.3 nM, respectively.

For the compound `C[C@@H](NC(=O)c1ccc(-c2nc([C@H]3CC[C@@H](O)CC3)cnc2N)cc1F)c1cccc(Cl)c1` [Example 416, 4-(3-amino-6-((1s,4S)-4-hydroxy-cyclohexyl)pyrazin-2-yl)-N-((R)-1-(3-chlorophenyl)ethyl)-2-fluorobenzamide], on activated ERK2 [1], the midpoint of inhibition, the IC50, lay at 5.68 nM.

Take `C[C@@H](NC(=O)c1ccc(-c2nc([C@H]3CC[C@H](O)CC3)cnc2N)cc1F)c1cc(F)cc(S(C)(=O)=O)c1` [Example 419, 4-(3-amino-6-((1r,4R)-4-hydroxy-cyclohexyl)pyrazin-2-yl)-2-fluoro-N-((R)-1-(3-fluoro-5-(methylsulfonyl)phenyl)ethyl) benzamide]: the IC50 against activated ERK2 [1] stood at 0.853 nM.

On activated ERK2 [1], `C[C@@H](NC(=O)c1ccc(-c2nc([C@H]3CC[C@@H](O)CC3)cnc2N)cc1F)c1cc(F)cc(S(C)(=O)=O)c1` [Example 420, 4-(3-amino-6-((1s,4S)-4-hydroxy-cyclohexyl)pyrazin-2-yl)-2-fluoro-N-((R)-1-(3-fluoro-5-(methylsulfonyl)phenyl)ethyl) benzamide] came in with an IC50 of 1.95 nM.
